Laboratory results from ChEMBL document CHEMBL5154930, “Design, Synthesis, and Biological Evaluations of DOT1L Peptide Mimetics Targeting the Protein-Protein Interactions between DOT1L and MLL-AF9/MLL-ENL” (J Med Chem, 2022).
Non-standard residues stand in square brackets, D forms with d. Residues, ends and D or L forms follow the SMILES beside them. *: point of attachment. X2 = c1ccc(-c2cn(CC3CCCCC3)c([C@@H]3CCCN3*)n2)cc1; Ala(cPent) = N[C@@H](CC1CCCC1)C(=O)O; Pentanoyl(4-Me) = CC(C)CCC(=O)*; Dap = NC[C@H](N)C(=O)O

Columns and labels:
[1] = Apparent permeability across apical to basolateral side in human Caco-2 cells; format: ADME, cell-based
KOPN-8 = experiment: cells; settings: Homo sapiens, KOPN-8, 192 h
Description: Anticancer activity against human KOPN-8 cells harbouring MLL-ENL assessed as inhibition of cell growth treated for 8 days measured by CCK-8 kit method

MOLM-13 = experiment: cells; settings: Homo sapiens, MOLM-13, 192 h
Description: Anticancer activity against human MOLM-13 cells harbouring MLL-AF9 assessed as inhibition of cell growth treated for 8 days measured by CCK-8 kit method

[2] = Stability in human plasma assessed as compound remaining measured upto 1440 mins by HPLC analysis; format: ADME, cell-free; settings: read-out: Stability
Protein ENL = target: T1, Protein ENL (Homo sapiens, UniProt Q03111); experiment: Binding affinity to MBP-tagged human recombinant ENL (489 to 559 residues) incubated for 40 mins by measuring fluorescence polarization by microplate reader method
T1 sequence (Q03111 whole entry): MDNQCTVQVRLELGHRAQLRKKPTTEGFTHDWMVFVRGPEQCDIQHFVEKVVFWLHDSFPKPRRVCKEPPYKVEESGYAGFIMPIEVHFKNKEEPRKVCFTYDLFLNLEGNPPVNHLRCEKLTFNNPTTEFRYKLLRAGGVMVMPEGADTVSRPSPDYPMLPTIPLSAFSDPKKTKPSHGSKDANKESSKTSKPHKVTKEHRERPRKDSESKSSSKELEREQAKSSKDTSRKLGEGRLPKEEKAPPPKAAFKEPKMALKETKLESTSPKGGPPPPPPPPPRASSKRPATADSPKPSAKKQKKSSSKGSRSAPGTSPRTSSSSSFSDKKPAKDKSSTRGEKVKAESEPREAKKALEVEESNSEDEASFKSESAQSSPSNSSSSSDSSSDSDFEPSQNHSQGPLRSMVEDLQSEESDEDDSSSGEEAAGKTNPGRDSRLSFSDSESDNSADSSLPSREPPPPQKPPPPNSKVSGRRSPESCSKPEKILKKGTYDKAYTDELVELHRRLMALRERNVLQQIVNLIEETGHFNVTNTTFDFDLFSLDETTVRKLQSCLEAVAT

With `CC(C)CCC(=O)N1CCC[C@H]1C(=O)N[C@H](C(=O)N[C@@H](CN)C(=O)N[C@@H](CC1CCCC1)C(=O)N1CCC[C@H]1c1nc(-c2ccccc2)cn1CC1CCCCC1)C(C)C` ({Pentanoyl(4-Me)}-PV[Dap][Ala(cPent)]-X2) the Papp A→B [1] was 0.73 ×10⁻⁶ cm/s, the IC50 (KOPN-8) was 2210 nM and the IC50 (MOLM-13) was 3200 nM. The remaining at 24 h [2] was 94% and the Ki (Protein ENL) was 240 nM.
